Patent publication US9556228B2 (Universitaet Leipzig, priority 2011, dated 2017)
In brackets after ≈: the same amount, converted by molar mass. Peptide text beside a SMILES is read from it. * marks the point of attachment. Orn(α-tetramethylguanidino) = CN(C)C(=N[C@@H](CCCN)C(=O)*)N(C)C

Experiments:
S. aureus DSM 6247 = assay type: cell-based, Staphylococcus aureus
Procedure: (§1) The minimum inhibitory concentrations (MIC) of the peptides were determined in a double assay of triplicates using a positive control sample (gentamycin) and a negative control sample (0.9% NaCl solution), according to a modified protocol from Wiegand et al. (Wiegand, 2008).
(§2) For this purpose, the peptides were dissolved in water and were diluted in a double dilution series with 1/8 MH (eight-fold diluted Mueller-Hinton-Medium—2.6 g/L, Merck) in sterile 96-well, plates (Greiner Bio-One GmbH) in twelve dilution steps from 128 μg/mL to 62.5 ng/mL. Overnight cultures were adjusted using ⅛ MHB to approximately 1.5×10^7 colony forming units per mL. Of these, 50 μL of peptide solution per well was mixed with 50 μL bacteria solution each to obtain an initial concentration of […] bacteria per well. After 20 hours of incubation at 37′C, the absorption was determined at 595 nm (microplate reader, Wallac Victor3, Perkin Elmer). The minimum inhibitory concentration was identified as the lowest peptide concentration at which no bacterial growth could be detected.
(§3) In the experiment, the antibacterial activity of the peptides according to the invention in relation to the following bacterial strains was analyzed: Pseudomonas aeruginosa PAO1 (wt strain), Pseudomonas aeruginosa DSM 9644, Staphylococcus aureus DSM 1104/ATCC 25923, Staphylococcus aureus ATCC 6247, Escherichia coli UB 1005 (F—, nalA37, metB1) and Escherichia coli ATCC25922.

[1] = system: Pseudomonas aeruginosa DSM 9644; assay type: cell-based
Procedure: as §1
as §2, with “For this purpose, the peptides were dissolved in water and were diluted in a double dilution series with 1/8 MH (eight-fold diluted Mueller-Hinton-Medium—2.6 g/L, Merck) in sterile 96-well, plates (Greiner Bio-One GmbH) in twelve dilution steps from 128 μg/mL to 62.5 ng/mL.” left out
as §3

E. coli DSM 1103 = assay type: cell-based, Escherichia coli
Procedure: as §1, §2

[2] = system: Pseudomonas aeruginosa PAO1 (wt strain); assay type: cell-based; conditions: for Improvement over Native Sequence (SEQ No. 2) P. aeruginosa PAO1 wt: fold, from MIC in 1/8 MHB
Procedure: as §1, §2, §3

[3] = system: Staphylococcus aureus DSM 1104/ATCC 25923; assay type: cell-based; conditions: for MIC S. aureus ATCC 25923 / MIC S. aureus DSM 1104/ATCC 25923: DSM 1104; for Improvement over Native Sequence (SEQ No. 2) S. aureus ATCC 25923: fold, from MIC in 1/8 MHB
Procedure: as §1, §2, §3

Escherichia coli UB 1005 = assay: Minimum inhibitory concentration (MIC), broth microdilution; assay type: cell-based; conditions: for MIC E. coli UB1005: 1/8 MHB, Table 4; for Improvement over Native Sequence (SEQ No. 2) E. coli UB1005: fold, from MIC in 1/8 MHB
Procedure: as §1, §2, §3

[4] = system: Escherichia coli ATCC25922; assay type: cell-based

| MIC E. coli DSM 1103 (E. coli DSM 1103) | SMILES | MIC S. aureus DSM 6247 (S. aureus DSM 6247) | MIC P. aeruginosa PAO DSM 9644 [1] | MIC P. aeruginosa PAO1 wt [2] | Improvement over Native Sequence (SEQ No. 2) P. aeruginosa PAO1 wt [2] | MIC S. aureus ATCC 25923 [3] | MIC S. aureus DSM 1104/ATCC 25923 [3] | Improvement over Native Sequence (SEQ No. 2) S. aureus ATCC 25923 [3] | MIC E. coli UB1005 (Escherichia coli UB 1005) | Improvement over Native Sequence (SEQ No. 2) E. coli UB1005 (Escherichia coli UB 1005) | MIC E. coli ATCC 25922 [4] |
| --- | --- | --- | --- | --- | --- | --- | --- | --- | --- | --- | --- |
| 8 µg/mL (≈ 3.4 µM) | CC[C@H](C)[C@H](NC(=O)[C@H](Cc1ccc(O)cc1)NC(=O)[C@@H](NC(=O)[C@@H]1CCCN1C(=O)[C@H](CCCNC(=N)N)NC(=O)[C@H](CC(N)=O)NC(=O)[C@H](CC(N)=O)NC(=O)[C@H](CCCN)N=C(N(C)C)N(C)C)C(C)C)C(=O)N1CCC[C@H]1C(=O)N[C@@H](CCCNC(=N)N)C(=O)N1CCC[C@H]1C(=O)N[C@@H](CCCNC(=N)N)C(=O)N[C@@H](CCCNC(=N)N)C(=O)N1CCC[C@H]1C(=O)N[C@@H](Cc1c[nH]cn1)C(=O)N1CCC[C@H]1C(=O)N[C@@H](CCCNC(=N)N)C(=O)N[C@@H](CC(C)C)C(N)=O [compound 88] ({Orn(α-tetramethylguanidino)}-NNRPVYIPRPRRPHPRL-NH2) | 16 µg/mL (≈ 6.81 µM) | 16 µg/mL (≈ 6.81 µM) | – | – | – | – | – | – | – | – |
| – | CC[C@H](C)[C@H](NC(=O)[C@H](Cc1ccc(O)cc1)NC(=O)[C@@H](NC(=O)[C@@H]1CCCN1C(=O)[C@H](CCCNC(=N)N)NC(=O)[C@H](CC(N)=O)NC(=O)[C@H](CC(N)=O)NC(=O)CN)C(C)C)C(=O)N1CCC[C@H]1C(=O)N[C@@H](CCC(N)=O)C(=O)N1CCC[C@H]1C(=O)N[C@@H](CCCNC(=N)N)C(=O)N1CCC[C@H]1C(=O)N1CCC[C@H]1C(=O)N[C@@H](Cc1c[nH]cn1)C(=O)N1CCC[C@H]1C(=O)N[C@@H](CCCNC(=N)N)C(=O)N[C@@H](CC(C)C)C(=O)O [compound 2] (H-GNNRPVYIPQPRPPHPRL-OH; N-terminus assumed) | 256 µg/mL (≈ 121 µM) | >256 µg/mL | 500 µg/mL (≈ 237 µM) | 1 | >125 µg/mL | >125 µg/mL | 1 | 5 µg/mL (≈ 2.37 µM) | 1 | 2 µg/mL (≈ 0.949 µM) |
| – | CC[C@H](C)[C@H](NC(=O)[C@H](Cc1ccc(O)cc1)NC(=O)[C@@H](NC(=O)[C@@H]1CCCN1C(=O)[C@H](CCCNC(=N)N)NC(=O)[C@H](CC(N)=O)NC(=O)[C@H](CC(N)=O)NC(=O)CN)C(C)C)C(=O)N1CCC[C@H]1C(=O)N[C@@H](CCCNC(=N)N)C(=O)N1CCC[C@H]1C(=O)N[C@@H](CCCNC(=N)N)C(=O)N[C@@H](CCCNC(=N)N)C(=O)N1CCC[C@H]1C(=O)N[C@@H](Cc1c[nH]cn1)C(=O)N1CCC[C@H]1C(=O)N[C@@H](CCCNC(=N)N)C(=O)N[C@@H](CC(C)C)C(N)=O [compound 64] (H-GNNRPVYIPRPRRPHPRL-NH2; N-terminus assumed) | 2 µg/mL (≈ 0.911 µM) | 32 µg/mL (≈ 14.6 µM) | 64 µg/mL (≈ 29.2 µM) | 8 | 4 µg/mL (≈ 1.82 µM) | 4 µg/mL (≈ 1.82 µM) | 64 | 2.5 µg/mL (≈ 1.14 µM) | 2 | 8 µg/mL (≈ 3.65 µM) |
| – | CC[C@H](C)[C@H](NC(=O)[C@H](Cc1ccc(O)cc1)NC(=O)[C@@H](NC(=O)[C@@H]1CCCN1C(=O)[C@H](CCCNC(=N)N)NC(=O)[C@H](CC(N)=O)NC(=O)[C@H](CC(N)=O)NC(=O)CN)C(C)C)C(=O)N1CCC[C@H]1C(=O)N[C@@H](CCC(N)=O)C(=O)N1CCC[C@H]1C(=O)N[C@@H](CCCNC(=N)N)C(=O)N1CCC[C@H]1C(=O)N1CCC[C@H]1C(=O)N[C@@H](Cc1c[nH]cn1)C(=O)N1CCC[C@H]1C(=O)N[C@@H](CCCNC(=N)N)C(=O)N[C@@H](CC(C)C)C(N)=O [compound 90] (H-GNNRPVYIPQPRPPHPRL-NH2; N-terminus assumed) | 64 µg/mL (≈ 30.4 µM) | – | 250 µg/mL (≈ 119 µM) | 2 | >125 µg/mL | >125 µg/mL | – | 1.25 µg/mL (≈ 0.593 µM) | 4 | 2 µg/mL (≈ 0.949 µM) |
| – | CC[C@H](C)[C@H](NC(=O)[C@H](Cc1ccc(O)cc1)NC(=O)[C@@H](NC(=O)[C@@H]1CCCN1C(=O)[C@H](CCCNC(=N)N)NC(=O)[C@H](CC(N)=O)NC(=O)[C@H](Cc1c[nH]c2ccccc12)NC(=O)CN)C(C)C)C(=O)N1CCC[C@H]1C(=O)N[C@@H](CCC(N)=O)C(=O)N1CCC[C@H]1C(=O)N[C@@H](CCCNC(=N)N)C(=O)N[C@@H](CCCNC(=N)N)C(=O)N1CCC[C@H]1C(=O)N[C@@H](Cc1c[nH]cn1)C(=O)N1CCC[C@H]1C(=O)N[C@@H](CCCNC(=N)N)C(=O)N[C@@H](CC(C)C)C(N)=O [compound 52] (H-GWNRPVYIPQPRRPHPRL-NH2; N-terminus assumed) | 2 µg/mL (≈ 0.893 µM) | 64 µg/mL (≈ 28.6 µM) | 64 µg/mL (≈ 28.6 µM) | 8 | 4 to 8 µg/mL | 4 to 8 µg/mL | 31-64 | 5 µg/mL (≈ 2.23 µM) | 1 | 16 µg/mL (≈ 7.15 µM) |
| – | CC[C@H](C)[C@H](NC(=O)[C@H](Cc1ccc(O)cc1)NC(=O)[C@@H](NC(=O)[C@@H]1CCCN1C(=O)[C@H](CCCNC(=N)N)NC(=O)[C@H](CC(N)=O)NC(=O)[C@H](Cc1c[nH]c2ccccc12)NC(=O)CN)C(C)C)C(=O)N1CCC[C@H]1C(=O)N[C@@H](CCCNC(=N)N)C(=O)N1CCC[C@H]1C(=O)N[C@@H](CCCNC(=N)N)C(=O)N[C@@H](CCCNC(=N)N)C(=O)N1CCC[C@H]1C(=O)N[C@@H](Cc1c[nH]cn1)C(=O)N1CCC[C@H]1C(=O)N[C@@H](CCCNC(=N)N)C(=O)N[C@@H](CC(C)C)C(N)=O [compound 50] (H-GWNRPVYIPRPRRPHPRL-NH2; N-terminus assumed) | 2 µg/mL (≈ 0.882 µM) | 32 µg/mL (≈ 14.1 µM) | 32 µg/mL (≈ 14.1 µM) | 16 | 2 µg/mL (≈ 0.882 µM) | 2 µg/mL (≈ 0.882 µM) | 128 | 2.5 µg/mL (≈ 1.1 µM) | 2 | 8 µg/mL (≈ 3.53 µM) |
| – | CC[C@H](C)[C@H](NC(=O)[C@H](Cc1ccc(O)cc1)NC(=O)[C@@H](NC(=O)[C@@H]1CCCN1C(=O)[C@H](CCCNC(=N)N)NC(=O)[C@H](CC(N)=O)NC(=O)[C@H](CC(N)=O)NC(=O)CN)C(C)C)C(=O)N1CCC[C@H]1C(=O)N[C@@H](CCC(N)=O)C(=O)N1CCC[C@H]1C(=O)N[C@@H](CCCNC(=N)N)C(=O)N1CCC[C@H]1C(=O)N[C@@H](CS)C(=O)N[C@@H](Cc1c[nH]cn1)C(=O)N1CCC[C@H]1C(=O)N[C@@H](CCCNC(=N)N)C(=O)N[C@@H](CC(C)C)C(N)=O [compound 60] (H-GNNRPVYIPQPRPCHPRL-NH2; N-terminus assumed) | – | – | 250 µg/mL (≈ 118 µM) | 2 | 16 µg/mL (≈ 7.57 µM) | – | 16 | 20 µg/mL (≈ 9.46 µM) | 0 | – |
